Assay results from patent publication US10233180B2, “Substituted nitrogen-containing heterocyclic derivatives, pharmaceutical compositions comprising the same and applications of antitumor thereof” (ZHEJIANG UNIVERSITY, priority 2014, dated 2019).
pIC50: −log10 of the molar value. Where two headings read alike, the source gives them in different places.

Legend:
[1] = system: Human ovarian cancer cell strain OVCAR-8; assay: MTT assay, inhibition of tumor cell growth in vitro, 72 h; assay type: cell-based; details: OVCAR-8, MTT, read-out: Antitumor proliferative activities of tumor cell (IC50, μM) OVCAR-8
How it was run: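 OVCAR8 cells in RPMI 1640 plus FBS were seeded at 4000 cells/well and exposed for 72 h at 37 °C to compound at 50, 10, 2, 0.4 and 0.08 μM final, with 1% DMSO as blank. Inhibition was calculated from OD relative to control, and IC50 was derived by the Bliss method.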

[2] = target: T1, Akt1 (Homo sapiens, UniProt P31749); assay: AKT1/PKBα KinEASE FP Fluorescein Green Assay (fluorescence polarization kinase kit); assay type: biochemical; details: 1 h reaction, read-out: Inhibitory activities against Akt1 (IC50)
T1 construct: purchased 32-021
How it was run: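 FP competition kinase assay: compounds (50 μM stock) with STK Substrate 3 and ATP, 1 h reaction at room temperature; stopped with stop/antibody mix, 4 h at room temperature, then polarization read. Inhibition derived from polarization values; IC50 calculated; triplicate wells.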

[3] = system: human colon cancer cell strain HCT-116; assay: MTT assay, inhibition of tumor cell growth in vitro, 72 h; assay type: cell-based; details: HCT-116, MTT, read-out: Antitumor proliferative activities of tumor cell (IC50, μM) HCT-116 (converted)
How it was run: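 Cells in RPMI 1640 with FBS, 4000 cells/well, exposed 72 h at 37 °C, 5% CO2 to final 50, 10, 2, 0.4 and 0.08 μM; 1% DMSO blank. MTT OD gives % inhibition versus control; IC50 derived by Bliss method.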

T1 sequence (P31749 whole entry): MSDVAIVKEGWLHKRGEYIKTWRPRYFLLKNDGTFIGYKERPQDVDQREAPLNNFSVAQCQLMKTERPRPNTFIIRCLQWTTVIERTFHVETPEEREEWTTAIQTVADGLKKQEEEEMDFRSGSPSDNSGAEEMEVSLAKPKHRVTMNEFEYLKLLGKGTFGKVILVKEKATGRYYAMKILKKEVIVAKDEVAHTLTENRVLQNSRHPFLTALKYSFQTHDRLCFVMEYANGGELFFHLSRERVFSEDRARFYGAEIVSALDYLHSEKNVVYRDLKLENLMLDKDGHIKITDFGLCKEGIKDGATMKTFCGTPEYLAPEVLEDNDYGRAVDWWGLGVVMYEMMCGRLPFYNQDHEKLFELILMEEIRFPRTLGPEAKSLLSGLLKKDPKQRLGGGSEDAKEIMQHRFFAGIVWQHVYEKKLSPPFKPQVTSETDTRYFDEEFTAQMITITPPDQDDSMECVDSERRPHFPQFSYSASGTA

Row | Molecule | IC50 ([1]; Homo sapiens) | pIC50 [2] | IC50 ([3]; Homo sapiens) | IC50 [1] | IC50 [3]
1 | CNC(=O)CC1C[C@@H](c2ccc(F)c(F)c2)[C@H](NC(=O)c2ccc(-c3c(Cl)cnn3C)cc2)CN1 (stereo partly drawn) [Compound 98] | 1.82 µM | 8.40 | 0.92 µM | – | –
2 | Cc1cnn(C)c1-c1cnc(C(=O)N[C@H]2CNCC[C@@H]2c2ccc(F)c(F)c2)cc1F (racemic) [Compound 46, 4-fluoro-5-(1,4-dimethyl-1H-pyrazol-5-yl)-N-(3,4-trans-4-(3,4-difluorophenyl)piperidin-3-yl)pyridinyl-2-formamide] | 7.94 µM | 6.46 | 23.8 µM | – | –
3 | CC1CCC([C@H]2CCNC[C@@H]2NC(=O)c2ncc(-c3c(Cl)cnn3C)c(Cl)n2)CC1 (stereo partly drawn) [Compound 55, 4-chloro-5-(4-chloro-1-methyl-1H-pyrazol-5-yl)-N-(3,4-trans-4-(4-methylcyclohexane)piperidin-3-yl)pyrimidine-2-formamide] | 5.79 µM | 7.32 | 10.8 µM | – | –
4 | Cn1ncc(Cl)c1-c1coc(C(=O)N[C@H]2CNCC[C@@H]2c2ccc(Cl)cc2)c1 (racemic) [Compound 23, 4-(4-chloro-1-methyl-1H-pyrazol-5-yl)-N-(3,4-trans-4-(4-chlorphenyl)piperidin-3-yl)furan-2-formamide] | 1.22 µM | 7.35 | 3.78 µM | – | –
5 | Cn1ncc(Cl)c1-c1coc(C(=O)N[C@H]2CNCC[C@@H]2c2ccc(F)c(F)c2)c1 (racemic) [Compound 25, 4-(4-chloro-1-methyl-1H-pyrazol-5-yl)-N-(3,4-trans-4-(3,4-difluorophenyl)piperidin-3-yl)furan-2-formamide] | 21.4 µM | 6.62 | 3.19 µM | – | –
6 | Cn1ncc(Cl)c1-c1ccc(C(=O)N[C@@H]2CNCC[C@H]2c2cccc(F)c2)s1 [Compound 138, 5-(4-chloro-1-methyl-1H-pyrazol-5-yl)-N-((3S,4S)-4-(3-fluorophenyl)piperidin-3-yl)thiophene-2-formamide] | 3.01 µM | 9.00 | 0.56 µM | – | –
7 | C=Cc1cnn(C)c1-c1ccc(C(=O)N[C@@H]2CNCC[C@H]2c2cccc(F)c2)s1 [Compound 144, N-((3S, 4S)-4-(3-fluorophenyl)piperidin-3-yl)-5-(1-methyl-4-vinyl-1H-pyrazol-5-yl)thiophene-2-formamide] | 3.48 µM | 8.70 | 3.68 µM | – | –
8 | Cc1nc(C(=O)N[C@H]2CNCC[C@@H]2c2ccncc2)ccc1-c1c(Br)cnn1C (racemic) [Compound 58, 6-methyl-5-(4-bromo-1-methyl-1H-pyrazol-5-yl)-N-(3,4-trans-4-(pyridinyl-4-yl)piperidin-3-yl)pyridinyl-2-formamide] | 3.68 µM | 7.28 | 15.8 µM | – | –
9 | CC(Cl)c1ccc([C@H]2CCNC[C@@H]2NC(=O)c2cc(Cl)c(-c3ncnn3C)s2)cc1 (stereo partly drawn) [Compound 8, 4-chloro-5-(1-methyl-1H-1,2,4-triazol-5-yl)-N-(3,4-trans-4-(4-(1-chloroethyl)phenyl)piperidin-3-yl)thiophene-2-formamide] | 9.01 µM | 7.09 | 3.26 µM | – | –
10 | Cn1ncc(Cl)c1-c1cc(C(=O)N[C@@H]2CNC(CCN3CCCC(O)C3)C[C@H]2c2ccc(Cl)c(Cl)c2)oc1Cl (stereo partly drawn) [Compound 115, 5-chloro-4-(4-chloro-1-methyl-1H-pyrazol-5-yl)-N-((3S,4S)-4-(3,4-dichlorophenyl)-6-(2-(3-hydroxylpiperidin-1-yl)ethyl)piperidin-3-yl)furan-2-formamide] | 0.78 µM | 9.10 | 0.56 µM | – | –
11 | Cc1nc(C(=O)N[C@H]2CNCC[C@@H]2C2CCCNC2)ccc1-c1c(Br)cnn1C (mixture of isomers) [Compound 59, 6-methyl-5-(4-bromo-1-methyl-1H-pyrazol-5-yl)-N-(3,4-trans-4-(piperidin-3-yl)piperidin-3-yl)pyridinyl-2-formamide] | 7.88 µM | 6.85 | 8.33 µM | – | –
12 | Cn1ncc(Cl)c1-c1ccc(C(=O)N[C@@H]2CNC(CCNS(C)(=O)=O)C[C@H]2c2cccc(F)c2)cc1Cl (stereo partly drawn) [Compound 103, 3-chloro-4-(4-chloro-1-methyl-1H-pyrazol-5-yl)-N-((3S,4S)-4-(3-fluorophenyl)-6-(2-(methylsulfonamido)ethyl)piperidin-3-yl)benzamide] | 1.11 µM | 8.30 | 2.81 µM | – | –
13 | Cn1ncc(Cl)c1-c1cc(C(=O)N[C@@H]2CNC(CC(O)CO)C[C@H]2c2ccc(F)c(F)c2)oc1Cl (stereo partly drawn) [Compound 128, 5-chloro-4-(4-chloro-1-methyl-1H-pyrazol-5-yl)-N-((3S,4S)-4-(3,4-difluorophenyl)-6-(2,3-dihydroxypropyl)piperidin-3-yl)furan-2-formamide] | 0.92 µM | 9.30 | 0.95 µM | – | –
14 | CNC(=O)CC1C[C@@H](c2ccc(F)c(F)c2)[C@H](NC(=O)c2cc(-c3c(Cl)cnn3C)c(Cl)s2)CN1 (stereo partly drawn) [Compound 104, 5-chloro-4-(4-chloro-1-methyl-1H-pyrazol-5-yl)-N-((3S,4S)-4-(3,4-difluorophenyl)-6-(2-(methylamido)-2-oxoethyl)piperidin-3-yl)thiophene-2-formamide] | 1.71 µM | 8.52 | 2.43 µM | – | –
15 | CC(=O)NCCC1C[C@@H](c2ccc(F)c(F)c2)[C@H](NC(=O)c2cc(-c3c(Cl)cnn3C)c(Cl)o2)CN1 (stereo partly drawn) [Compound 126, N-((3S,4S)-6-(2-acetaminoethyl)-4-(3,4-difluorophenyl)piperidin-3-yl)-5-chloro-4-(4-chloro-1-methyl-1H-pyrazol-5-yl)furan-2-formamide] | 0.47 µM | 9.70 | 5.82 µM | – | –
16 | CCc1c(-c2ncnn2C)c(Br)n(C)c1C(=O)N[C@H]1CNCC[C@@H]1c1cccc(C(F)(F)F)c1 (racemic) [Compound 4, 5-bromo-3-ethyl-1-methyl-4-(1-methyl-1H-1,2,4-triazol-5-yl)-N-(3,4-trans-4-(3-trifluoromethylphenyl)piperidin-3-yl)-1H-pyrrole-2-formamide] | 5.19 µM | 7.32 | 15.6 µM | – | –
17 | Cn1ncc(Cl)c1-c1coc(C(=O)N[C@H]2CNCC[C@@H]2c2ccc(C(F)(F)F)cc2)c1 (racemic) [Compound 24, 4-(4-chloro-1-methyl-1H-pyrazol-5-yl)-N-(3,4-trans-4-(4-trifluoromethylphenyl)piperidin-3-yl)furan-2-formamide] | 0.98 µM | 7.74 | 2.9 µM | – | –
18 | 5-ethyl-1-methyl-4-(4-ethyl-1-methyl-1H-pyrazol-5-yl)-N-(3,4-trans-4-(piperidin-3-yl)piperidin-3-yl)-1H-pyrrole-2-formamide [Compound 17] | – | 7.55 | – | 1.43 µM | 3.4 µM
19 | Cc1cc(C(=O)N[C@H]2CNCC[C@@H]2C2CCCC(Cl)C2)ncc1-c1c(Cl)cnn1C (stereo partly drawn) [Compound 56, 5-(4-chloro-1-methyl-1H-pyrazol-5-yl)-N-(3,4-trans-4-(3-chlorocyclohexane)piperidin-3-yl)-4-methylpyridinyl-2-formamide] | 9.53 µM | 6.44 | 4.51 µM | – | –
20 | Cn1nccc1-c1ccc(C(=O)N[C@@H]2CNCC[C@H]2c2cccc(F)c2)s1 [Compound 146, N-((3S, 4S)-4-(3-fluorophenyl)piperidin-3-yl)-5-(1-methyl-1H-pyrazol-5-yl)thiophene-2-formamide] | 4.19 µM | 8.15 | 0.44 µM | – | –
21 | Cn1ncc(Cl)c1-c1cc(C(=O)N[C@@H]2CNC(CCNCC(O)CO)C[C@H]2c2ccc(Cl)c(Cl)c2)oc1Cl (stereo partly drawn) [Compound 123, 5-chloro-4-(4-chloro-1-methyl-1H-pyrazol-5-yl)-N-((3S,4S)-4-(3,4-dichlorophenyl)-6-(2-((2,3-dihydroxypropyl)amido)ethyl)piperidin-3-yl)furan-2-formamide] | 0.09 µM | 10.00 | 0.07 µM | – | –
22 | Cc1cc(C(=O)N[C@@H]2CNCC[C@H]2c2ccc(Cl)c(C(F)(F)F)c2)ccc1-c1c(Cl)cnn1C [Compound 74, 4-(4-chloro-1-methyl-1H-pyrazol-5-yl)-N-((3S,4S)-4-(4-chloro-3-(trifluoromethyl)phenyl)piperidin-3-yl)-3-methylbenzamide] | 1.3 µM | 7.85 | 0.42 µM | – | –
23 | Cc1sc(C(=O)N[C@H]2CNCC[C@@H]2c2ccc(F)c(F)c2)cc1-c1c(Cl)cnn1C (racemic) [Compound 5, 5-methyl-4-(4-chloro-1-methyl-1H-pyrazol-5-yl)-N-(3,4-trans-4-(3,4-difluorophenyl)piperidin-3-yl)thiophene-2-formamide] | 14.3 µM | 6.92 | 6.8 µM | – | –
24 | CCC[C@H]1CNC[C@@H](NC(=O)c2cc(-c3c(Cl)cnn3C)c(Cl)o2)[C@@H]1c1cccc(F)c1 [Compound 137, 5-chloro-4-(4-chloro-1-methyl-1H-pyrazol-5-yl)-N-((3S, 4S, 5R)-4-(3-fluorophenyl)-5-propylpiperidin-3-yl)furan-2-formamide] | 1.88 µM | 9.00 | 0.43 µM | – | –
